# “Also recorded” adds a separate entry of the source.
# Assays:
# [1] = system: eGFP-SLX4 interaction with TOPBP1, MUS81, ERCC1; test: eGFP-SLX4 co-immunoprecipitation, mitotic HEK293TN cells; type: cell-based, human; conditions: eGFP-SLX4 Co-IP; RO-3306 7 µM, 30 min, nocodazole-synchronised
# Description: (§1) GFP-Trap® Agarose Co-immunoprecipitation
# (§2) HEK293TN cells were seeded to be ~25–30% confluence the next day in a 15 cm tissue culture dish. The following day cells were transfected using Lipofectamine 2000 transfection reagent (Thermo Fisher Scientific) with 24 µg of plasmid DNA encoding eGFP-SLX4 or eGFP-TOPBP1 expression cassettes following manufacturer’s instructions.
# (§3) Forty eight hours post transfection cells were harvested after treatments as described, snap frozen on dry ice and stored at −80 °C. Cell pellets were removed from −80 storage and thawed on ice in 2.4 ml IP buffer 1 (100 mM NaCl, 0.2% Igepal CA-630, 1 mM MgCl2, 10% glycerol, 5 mM NaF, 50 mM Tris-HCl, pH 7.5), supplemented with EDTA Free […] protease inhibitor (Sigma Aldrich) and 25 U ml−1 Benzonase (Novagen). Cells were resuspended and rotated at 4 °C for 90 min. Benzonase was then inhibited by adjusted NaCl concentration to 200 mM and with the addition of 2 mM EDTA, followed by rotation for a further 30 min at 4 °C on a carousel. The cell suspension was then centrifuged at 16,000 x g for 25 min at 4 °C. […] The supernatant, now containing eluted material, was transferred to a new 1.5 ml microcentrifuge tube ready for downstream western blot analysis.
# [2] = system: SLX4 Thr1260; test: SLX4 Thr1260 phosphorylation in mitotic HEK293TN cells (western blot); type: cell-based, human; conditions: acute CDK1i (RO-3306 7 µM, 30 min) after 18 h 100 ng/ml nocodazole; eGFP-SLX4 or eGFP-TOPBP1 Co-IP
# Description: as §1, §2, §3
smiles,measurement,setting,value
O=C1NC(=NCc2cccs2)S/C1=C\c1ccc2ncccc2c1 [CDK1i],SLX4 Thr1260 phosphorylation and binding of TOPBP1,[1],reduced SLX4 phosphorylation of Thr1260 and binding of TOPBP1
same,eGFP-SLX4 interaction with MUS81 or ERCC1,[1],did not affect its interaction with MUS81 or ERCC1
same,SLX4 Thr1260 phosphorylation,[2],reduced; also recorded: marked reduction in SLX4 Thr1260 phosphorylation

# From article PMC12661054, “The CIP2A-TOPBP1 axis facilitates mitotic DNA repair via MiDAS and MMEJ” (Nature Communications, 2025)
